Reference: the NIST ThermoML archive (doi:10.1021/je0302001)

Experiment: mn = molality of the nth substance listed, in mol/kg
Conditions: for surface tension liquid-gas: Ring tensiometer; for viscosity / speed of sound / mass density: 101.3 kPa, Liquid; for viscosity: Capillary tube (Ostwald / Ubbelohde) method

O=[N+]([O-])[O-].O=[N+]([O-])[O-].[Zn+2] [nitric acid, zinc salt] + O
Conditions	mass density [kg/m3]	speed of sound [m/s]	surface tension liquid-gas [mN/m]	viscosity [mPa·s]
293.15 K, m1 = 0.0875	–	1489.1	–	–
293.15 K, m1 = 0.1329	–	1488.6	–	1.053
293.15 K, m1 = 0.2466	–	1494.3	–	1.086
293.15 K, m1 = 0.3388	–	1499	–	1.118
293.15 K, m1 = 0.6111	–	1514.8	–	1.21
293.15 K, m1 = 0.6405	–	1517	–	1.223
293.15 K, m1 = 1.113	–	1546	–	1.428
293.15 K, m1 = 1.258	–	1558.9	–	1.514
293.15 K, m1 = 1.551	–	1578.3	–	1.664
293.15 K, m1 = 1.906	–	1603.4	–	1.931
293.15 K, m1 = 2.145	–	1618.3	–	2.133
293.15 K, m1 = 2.29	–	1627.9	–	2.258
293.15 K, m1 = 2.292	–	1626.3	–	–
293.15 K, m1 = 2.344	–	1631.6	–	2.273
293.15 K, m1 = 2.91	–	1666.2	–	2.846
293.15 K, m1 = 3.472	–	1697.2	–	3.61
293.15 K, m1 = 4.075	–	1724.9	–	4.615
293.15 K, m1 = 4.817	–	1752.8	–	6.303
293.15 K, m1 = 5.133	–	–	85.7	–
293.15 K, m1 = 5.224	–	1762.1	–	7.371
293.15 K, m1 = 5.797	–	1777.6	–	9.658
293.15 K, m1 = 6.245	–	–	86.95	–
293.15 K, m1 = 6.34	–	1787.7	–	11.98
293.15 K, m1 = 6.89	–	1796.2	–	–
294.3 K, m1 = 0.0875	1010.8	–	–	–
295.95 K, m1 = 4.075	1492.7	–	–	–
296.1 K, m1 = 6.89	1712.4	–	–	–
296.15 K, m1 = 0.2466	1034.3	–	–	–
296.25 K, m1 = 4.817	1558.4	–	–	–
296.5 K, m1 = 1.258	1177	–	–	–
297.05 K, m1 = 0.3388	1047.7	–	–	–
297.05 K, m1 = 1.906	1259.3	–	–	–
297.5 K, m1 = 2.29	1304.8	–	–	–
297.8 K, m1 = 0.6111	1087.1	–	–	–
297.85 K, m1 = 0.1329	1016.6	–	–	–
297.9 K, m1 = 2.292	1304.8	–	–	–
297.95 K, m1 = 4.075	1491.1	–	–	–
298 K, m1 = 2.344	1310.8	–	–	–
298.05 K, m1 = 3.472	1432.6	–	–	–
298.15 K, m1 = 0.0875	–	1502.8	–	–
298.15 K, m1 = 0.1329	–	1501.5	–	0.937
298.15 K, m1 = 0.2466	–	1506.6	–	0.968
298.15 K, m1 = 0.3388	–	1512.2	–	0.997
298.15 K, m1 = 0.6111	–	1526.1	–	1.081
298.15 K, m1 = 0.6405	–	1527.3	–	1.093
298.15 K, m1 = 1.113	–	1554.3	–	1.278
298.15 K, m1 = 1.258	–	1570.5	–	1.355
298.15 K, m1 = 1.551	–	1584.3	–	1.489
298.15 K, m1 = 1.906	–	1606.9	–	1.725
298.15 K, m1 = 2.145	–	1620.9	–	1.903
298.15 K, m1 = 2.29	–	1633	–	2.009
298.15 K, m1 = 2.292	–	1628.3	–	–
298.15 K, m1 = 2.344	–	1633.6	–	2.026
298.15 K, m1 = 2.91	–	1665.2	–	2.527
298.15 K, m1 = 3.472	–	1694.4	–	3.188
298.15 K, m1 = 4.075	–	1719.1	–	4.048
298.15 K, m1 = 4.817	1556.8	1748.7	–	5.473
298.15 K, m1 = 5.224	–	1755.5	–	6.362
298.15 K, m1 = 5.797	–	1769.4	–	8.228
298.15 K, m1 = 6.34	–	1777.8	–	10.12
298.15 K, m1 = 6.89	–	1783	–	–
298.45 K, m1 = 0.0875	1009.7	–	–	–
298.45 K, m1 = 5.224	1589.9	–	–	–
298.65 K, m1 = 0.6405	1090.9	–	–	–
298.75 K, m1 = 1.113	1156.5	–	–	–
298.75 K, m1 = 2.91	1373.5	–	–	–
298.85 K, m1 = 2.145	1286.9	–	–	–
298.95 K, m1 = 1.258	1175.8	–	–	–
299.05 K, m1 = 7.349	1738.2	–	–	–
299.2 K, m1 = 1.906	1258	–	–	–
299.6 K, m1 = 5.8	1633.1	–	–	–
299.7 K, m1 = 0.2466	1033.3	–	–	–
299.7 K, m1 = 1.551	1213.3	–	–	–
299.7 K, m1 = 6.89	1708.8	–	–	–
299.75 K, m1 = 2.29	1303.4	–	–	–
300.05 K, m1 = 2.292	1303.4	–	–	–
300.05 K, m1 = 3.472	1431.1	–	–	–
300.05 K, m1 = 6.34	1671.6	–	–	–
300.2 K, m1 = 2.344	1309.4	–	–	–
300.35 K, m1 = 5.224	1588.3	–	–	–
300.55 K, m1 = 0.3388	1046.5	–	–	–
300.8 K, m1 = 0.6111	1085.9	–	–	–
300.8 K, m1 = 2.91	1372.1	–	–	–
301 K, m1 = 2.145	1285.5	–	–	–
301.25 K, m1 = 1.113	1155.2	–	–	–
301.35 K, m1 = 5.8	1631.5	–	–	–
301.35 K, m1 = 6.89	1707.1	–	–	–
301.4 K, m1 = 0.1329	1015.6	–	–	–
301.4 K, m1 = 1.906	1256.6	–	–	–
301.5 K, m1 = 1.258	1174.5	–	–	–
301.55 K, m1 = 0.6405	1089.7	–	–	–
301.85 K, m1 = 2.29	1302	–	–	–
301.85 K, m1 = 4.075	1488	–	–	–
301.85 K, m1 = 6.34	1669.9	–	–	–
302 K, m1 = 1.551	1212	–	–	–
302.1 K, m1 = 3.472	1429.5	–	–	–
302.1 K, m1 = 4.817	1553.4	–	–	–
302.2 K, m1 = 2.292	1302	–	–	–
302.25 K, m1 = 2.344	1308.1	–	–	–
302.25 K, m1 = 5.224	1586.5	–	–	–
302.35 K, m1 = 0.0875	1008.6	–	–	–
302.5 K, m1 = 7.349	1734.5	–	–	–
302.9 K, m1 = 2.91	1370.6	–	–	–
303.15 K, m1 = 0.0875	–	1514.4	–	–
303.15 K, m1 = 0.1329	–	1513	–	0.841
303.15 K, m1 = 0.2263	–	–	71.91	–
303.15 K, m1 = 0.2466	1032.1	1518.2	–	0.87
303.15 K, m1 = 0.334	–	–	71.94	–
303.15 K, m1 = 0.3388	–	1520.9	–	0.896
303.15 K, m1 = 0.6111	–	1535.9	–	0.976
303.15 K, m1 = 0.6198	–	–	72.68	–
303.15 K, m1 = 0.6405	–	1536.9	–	0.984
303.15 K, m1 = 0.8228	–	–	73.52	–
303.15 K, m1 = 1.113	–	1561.1	–	1.15
303.15 K, m1 = 1.258	–	1571.6	–	1.221
303.15 K, m1 = 1.259	–	–	74.63	–
303.15 K, m1 = 1.549	–	–	75.19	–
303.15 K, m1 = 1.551	–	1589.3	–	1.34
303.15 K, m1 = 1.818	–	–	75.65	–
303.15 K, m1 = 1.906	–	1610.2	–	1.549
303.15 K, m1 = 2.145	1284.1	–	–	1.711
303.15 K, m1 = 2.222	–	–	76.95	–
303.15 K, m1 = 2.29	–	–	–	1.797
303.15 K, m1 = 2.344	–	–	–	1.819
303.15 K, m1 = 2.526	–	–	77.93	–
303.15 K, m1 = 2.721	–	–	78.39	–
303.15 K, m1 = 2.91	–	–	–	2.259
303.15 K, m1 = 3.426	–	–	80.38	–
303.15 K, m1 = 3.472	–	–	–	2.839
303.15 K, m1 = 4.011	–	–	81.68	–
303.15 K, m1 = 4.075	–	–	–	3.581
303.15 K, m1 = 4.231	–	–	82.16	–
303.15 K, m1 = 4.817	–	–	–	4.795
303.15 K, m1 = 5.133	–	–	84.17	–
303.15 K, m1 = 5.224	–	–	–	5.544
303.15 K, m1 = 5.797	–	–	–	7.1
303.15 K, m1 = 6.245	–	–	85.54	–
303.15 K, m1 = 6.34	–	–	–	8.647
303.15 K, m1 = 6.89	–	–	–	10.85
303.15 K, m1 = 7.349	–	–	–	12.93
